According to patent US20120020940A1, “ANTIMICROBIAL PEPTIDES” (Helmholtz Zentrum München Deutsches Forschungszentrum Für …, priority 2008, published 2012):
Like-named read-outs stand apart in the source and are kept apart here. No end group written: not given here.

Experiments:
[1] = test system: Alternaria alternata; experiment: MIC, antifungal in-vitro inhibition assay (Example 2); format: cell-based; conditions: Table 1
Procedure: (§1) In-vitro inhibition assays were performed in sterile flat-bottom 96-well plates (Greiner bio-one, Frickenhausen). Antimicrobial peptides were dissolved in 0.01% acetic acid containing 0.2% BSA (500 μg/ml), filter sterilized and stored at −20° C. For inhibition assays dilutions of peptides ranging from 5 to 200 μg/ml were prepared and 10 μl (antibacterial assay) or 20 μl (antifungal assay) of each concentration was loaded per well.
(§2) Spores of fungi were collected by water washes of sporulating cultures grown on 2% malt extract agar and spore concentration was determined by microscopy. The concentration of the spores was adjusted to 1.5-2×10^3 spores/ml in 2% malt extract medium and 80 μl of fungal spores were added per well. The final peptide concentrations used in the fungal inhibition assays were […]. After overnight incubation at room temperature the plate were put on a rotary shaker (300 rpm) for further two days to ensure consistantly growth. Antifungal effects of the peptides were determined by a microplate reader (Alternaria, Fusarium) at OD590 nm or by visual screening of the plates (Botrytis, Cladosporium).
(§3) The lowest peptide concentration leading to complete inhibition of bacterial growth or spore germination/mycelial growth (minimal inhibition concentration, MIC) was determined for each organism-peptide combination. For each peptide concentration two identical inhibition assays were performed.

[2] = test system: Botrytis cinerea; experiment: as above; format: cell-based; conditions: Table 1
Procedure: as §1, §2, §3

[3] = test system: Cladosporium herbarum; experiment: as above; format: cell-based; conditions: Table 1
Procedure: as §1, §2, §3

[4] = test system: human erythrocytes; experiment: Hemolytic activity, hemoglobin release; format: cell-based; conditions: 45 min at 37° C., Table 3
Procedure: The hemolytic activity of the peptides was evaluated by determining hemoglobin release of suspensions of fresh human erythrocytes at 405 nm. Human red blood cells were centrifuged and washed three times with Tris-buffer (10 mM Tris, 150 mM NaCl, pH 7.4). Eighty μl of human red blood cells (1.5×10^9/ml) were added to 20 μl of the peptides solution (peptides dissolved in 0.2% BSA, 0.01% HAc) in 96-well plates (Greiner bio-one, Frickenhausen) and incubated for 45 min at 37° C. The endconcentration of the peptides were 0, 20, 50, 100 and 200 μg/ml. After centrifugation (1500×g, 5 min, 20° C.) 30 μl aliquots of the supernatant were transferred to 96-well plates containing 100 μl water. Hemolysis was measured by absorbance at 405 nm with a microplate reader. 100% hemolysis were determined in 2% SDS. The hemolysis percentage was calculated using the following equation: % hemolysis=[(Abs405 nm in the peptide solution−Abs405 nm in peptides solvent)/(Abs405 nm in 2% SDS−Abs405 nm in peptide solvent)]×100.
Further hemolytic activities of the various peptides of the present invention may be taken from the table depicted in example 3, last row indicated as “Hemolytic activity”. In connection therewith, however, the concentrations are stated where at least 50% hemolysis was observed.

[5] = test system: Clavibacter michiganensis sub. michiganensis; conditions: overnight 25° C., Table 1
[6] = test system: Pectobacterium carotovorum sub. carotovorum; conditions: Pectobacterium carotovorum sub. carotovorum; overnight 25° C.; Table 1
[7] = test system: Xanthomonas vesicatoria; conditions: Xanthomonas vesicatoria; overnight 25° C.; Table 1
[8] = test system: Pseudomonas syringae pv. tomato; conditions: Pseudomonas syringae pv. tomato; overnight 25° C.; Table 1
[9] = test system: Pseudomonas syringae pv. syringae; conditions: Pseudomonas syringae pv. syringae; overnight 25° C.; Table 1
[10] = test system: Pseudomonas corrugata; conditions: Pseudomonas corrugata; overnight 25° C.; Table 1
[11] = test system: Clavibacter michiganensis; experiment: MIC and lethal concentration (Example 3); format: cell-based; conditions: Table 2; for MIC (>90% inhibition): 1-2 days at 25° C.; for LC, lethal concentration (100% inhibition): at least 4 days of incubation
Procedure: as §1
(§4) Bacteria colonies from overnight agar plate cultures were resuspended into 5 ml LB-medium or HPG-medium (OD600 nm=0.08-0.1) and diluted into LB-medium/HPG-medium (1:100). 90 μl of this suspension containing about 10^5-10^6 CFU/ml of tested bacteria were added to each well resulting in final peptide concentrations of 0, 0.5, 1, 2, 5, 10, and 20 μg/ml. […] The lowest concentration, in which there is no observable growth (>90% inhibition) is referred to as minimal inhibitory concentration (MIC). […] For each peptide concentration two identical inhibition assays were performed.

[12] = test system: Pectobacterium carotovorum; experiment: MIC and lethal concentration (Example 3); format: cell-based; conditions: Table 2; for MIC (>90% inhibition): 1-2 days at 25° C.; for LC, lethal concentration (100% inhibition): at least 4 days of incubation
Procedure: as §1, §4

[13] = test system: Pseudomonas corrugata; experiment: MIC and lethal concentration (Example 3); format: cell-based; conditions: Table 2; for MIC (>90% inhibition): 1-2 days at 25° C.; for LC, lethal concentration (100% inhibition): at least 4 days of incubation
Procedure: as §1, §4

[14] = test system: Pseudomonas syringae pv. syringae; experiment: MIC and lethal concentration (Example 3); format: cell-based; conditions: Table 2; for MIC (>90% inhibition): 1-2 days at 25° C.; for LC, lethal concentration (100% inhibition): at least 4 days of incubation
Procedure: as §1, §4

[15] = test system: Pseudomonas syringae pv. tomato; experiment: MIC and lethal concentration (Example 3); format: cell-based; conditions: Table 2; for MIC (>90% inhibition): 1-2 days at 25° C.; for LC, lethal concentration (100% inhibition): at least 4 days of incubation
Procedure: as §1, §4

[16] = test system: Xanthomonas vesicatoria; experiment: MIC and lethal concentration (Example 3); format: cell-based; conditions: Table 2; for MIC (>90% inhibition): 1-2 days at 25° C.; for LC, lethal concentration (100% inhibition): at least 4 days of incubation
Procedure: as §1, §4

[17] = test system: Escherichia coli (DH5α); format: cell-based
Procedure: (§5) In-vitro inhibition assays were performed in sterile ELISA-plates (Greiner bio-one, Frickenhausen or Nunc, Wiesbaden). Antimicrobial peptides were dissolved in 0.01% acetic acid containing 0.2% BSA and stored at −20° C. […] After incubation for one day at 27° C. growth inhibition of the bacteria was analyzed by a ELISA microplate reader.

[18] = test system: Pseudomonas aeruginosa; format: cell-based
Procedure: as §5

[19] = test system: Staphylococcus aureus; format: cell-based
Procedure: as §5

[20] = test system: Staphylococcus epidermidis; format: cell-based
Procedure: as §5

[21] = test system: Yersinia enterocolitica; format: cell-based
Procedure: as §5

Row | Substance | Minimal inhibition concentration (MIC) for complete inhibition of spore germination/mycelial growth [1] [mg/L] | Minimal inhibition concentration (MIC) for complete inhibition of spore germination/mycelial growth [2] [mg/L] | Minimal inhibition concentration (MIC) for complete inhibition of spore germination/mycelial growth [3] [mg/L] | Hemolytic activity, concentration where at least 25% hemolysis was observed [4] [µg/mL] | Minimal inhibition concentration (MIC) for complete inhibition of bacterial growth [5] [mg/L] | Minimal inhibition concentration (MIC) for complete inhibition of bacterial growth [6] [mg/L] | Minimal inhibition concentration (MIC) for complete inhibition of bacterial growth [7] [mg/L] | Minimal inhibition concentration (MIC) for complete inhibition of bacterial growth [8] [mg/L] | Minimal inhibition concentration (MIC) for complete inhibition of bacterial growth [9] [mg/L] | Minimal inhibition concentration (MIC) for complete inhibition of bacterial growth [10] [mg/L] | MIC (>90% inhibition) [11] | LC, lethal concentration (100% inhibition) [11] | MIC (>90% inhibition) [12] [mg/L] | LC, lethal concentration (100% inhibition) [12] [µg/mL] | MIC (>90% inhibition) [13] | LC, lethal concentration (100% inhibition) [13] | MIC (>90% inhibition) [14] [mg/L] | LC, lethal concentration (100% inhibition) [14] [µg/mL] | MIC (>90% inhibition) [15] | LC, lethal concentration (100% inhibition) [15] | also measured
1 | LKALRKALKHLA-NH2 [SP12, LKALRKALKHLA -NH2] | >100 | >100 | 20 | >200 | >40 | >40 | 20 | 2.5 | 10 | >40 |  |  |  |  |  |  |  |  |  |  | 
2 | LLKALKKLLKKLL-NH2 [SP9] | >100 | >100 | 40 | 50 | 10 | >40 | 5 | 10 | 10 | >40 |  |  |  |  |  |  |  |  |  |  | 
3 | LRFLKKALKKLF-NH2 [SP10-2] |  |  |  |  |  |  |  |  |  |  | 0.25/0.25 μg/ml | 0.25/0.25 μg/ml | 1.0 | 2.5 | 0.5/0.5 μg/ml | 0.5/0.5 μg/ml | 0.1 | 0.25 | 0.5/0.5 μg/ml | 0.5/0.5 μg/ml | MIC (>90% inhibition) [16]: 0.25/0.25 μg/ml; LC, lethal concentration (100% inhibition) [16]: 0.25/0.25 μg/ml; MIC (>90% inhibition) ([17]; DH5α): 1 mg/L; MIC (>90% inhibition) [18]: 1 mg/L; MIC (>90% inhibition) [19]: 1 mg/L; MIC (>90% inhibition) [20]: 1 mg/L; MIC (>90% inhibition) [21]: 10 mg/L
4 | LRFLKKILKHLF (also: D-amino acids incorporated, places not given here) [SP10-D] | 5 | 10 | 5 | >200 | 5 | >40 | 2 | 0.5 | 2.5 | 2.5 |  |  |  |  |  |  |  |  |  |  | 
5 | LRKLKKILKKLF-NH2 [SP10-10] |  |  |  |  |  |  |  |  |  |  | 0.25 µg/mL | 0.5 µg/mL | 2.5 | 5.0 | 0.25/0.25 μg/ml | 0.25/0.25 μg/ml | 0.25 | 0.5 | 0.5 µg/mL | 1.0 µg/mL | MIC (>90% inhibition) [16]: 0.1 µg/mL; LC, lethal concentration (100% inhibition) [16]: 0.5 µg/mL; MIC (>90% inhibition) ([17]; Escherichia coli (DH5α), one day at 27° C., Table 4): 1 mg/L; MIC (>90% inhibition) ([18]; Pseudomonas aeruginosa, one day at 27° C., Table 4): 2 mg/L; MIC (>90% inhibition) ([19]; Staphylococcus aureus, one day at 27° C., Table 4): 10 mg/L; MIC (>90% inhibition) ([20]; Staphylococcus epidermidis, one day at 27° C., Table 4): 1 mg/L; MIC (>90% inhibition) ([21]; Yersinia enterocolitica, one day at 27° C., Table 4): >50 mg/L
